“And” between values parts separate entries of the source, which are not always exact repeats. Equal values may be shown once. Read-outs that look alike come from different tables or passages of the source.
What was measured:
in vivo = format: in vivo, mice; settings: mice; for CSF concentration, Final / Brain concentration, Final / Plasma concentration, Final: listed as 7827_0016, 10 mg/kg
[1] = target: T1, prostaglandin D2 (PGD2) receptor (Homo sapiens, UniProt Q9Y5Y4); assay: Functional cAMP production assay, PGD2 receptor; format: cell-based
T1 sequence (Q9Y5Y4 1-395): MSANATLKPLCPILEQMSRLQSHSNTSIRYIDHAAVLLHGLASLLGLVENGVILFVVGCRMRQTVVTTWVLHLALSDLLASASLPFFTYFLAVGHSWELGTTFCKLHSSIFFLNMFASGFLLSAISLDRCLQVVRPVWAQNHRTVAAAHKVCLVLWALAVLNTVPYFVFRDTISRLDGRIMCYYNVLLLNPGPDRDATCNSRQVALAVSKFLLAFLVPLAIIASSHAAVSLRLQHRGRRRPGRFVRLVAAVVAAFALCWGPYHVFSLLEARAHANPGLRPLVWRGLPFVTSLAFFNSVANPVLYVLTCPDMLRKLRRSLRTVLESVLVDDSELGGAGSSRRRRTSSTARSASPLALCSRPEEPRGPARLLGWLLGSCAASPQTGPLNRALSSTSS

EP4R [2] = target: T2, EP4R (Homo sapiens, UniProt P35408); assay: biochemical; format: binding; settings: 3H-PGE2; read-out: Radiologand displacement Ki
T2 construct: Tango fusion cassette (only 'tango' is printed); expressed in transfected cells; host or cells: HTLA cells (tTA-dependent luciferase reporter, β-arrestin2-TEV fusion)
T2 sequence (P35408 whole entry, the tested form may be a part): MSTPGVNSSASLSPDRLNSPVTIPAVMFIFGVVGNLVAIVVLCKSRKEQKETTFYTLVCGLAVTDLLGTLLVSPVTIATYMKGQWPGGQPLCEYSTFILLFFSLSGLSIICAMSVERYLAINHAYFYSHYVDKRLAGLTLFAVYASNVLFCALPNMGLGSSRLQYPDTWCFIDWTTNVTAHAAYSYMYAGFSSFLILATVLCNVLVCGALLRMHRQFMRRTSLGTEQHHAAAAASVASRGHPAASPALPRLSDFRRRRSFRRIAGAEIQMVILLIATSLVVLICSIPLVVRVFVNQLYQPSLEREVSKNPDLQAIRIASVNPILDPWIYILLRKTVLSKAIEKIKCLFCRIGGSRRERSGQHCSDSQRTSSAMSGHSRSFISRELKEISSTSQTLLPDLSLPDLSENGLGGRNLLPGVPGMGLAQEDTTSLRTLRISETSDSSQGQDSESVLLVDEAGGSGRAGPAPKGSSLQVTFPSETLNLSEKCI

EP4R [3] = target: T2, EP4R; assay: PRESTO-Tango β-arrestin2 recruitment assay; format: cell-based
IKK-beta = IKK-beta (Homo sapiens, UniProt O14920); assay: biochemical; format: binding; settings: 10000 nM; read-out: Percent Control
IKK-beta, sequence (O14920 whole entry): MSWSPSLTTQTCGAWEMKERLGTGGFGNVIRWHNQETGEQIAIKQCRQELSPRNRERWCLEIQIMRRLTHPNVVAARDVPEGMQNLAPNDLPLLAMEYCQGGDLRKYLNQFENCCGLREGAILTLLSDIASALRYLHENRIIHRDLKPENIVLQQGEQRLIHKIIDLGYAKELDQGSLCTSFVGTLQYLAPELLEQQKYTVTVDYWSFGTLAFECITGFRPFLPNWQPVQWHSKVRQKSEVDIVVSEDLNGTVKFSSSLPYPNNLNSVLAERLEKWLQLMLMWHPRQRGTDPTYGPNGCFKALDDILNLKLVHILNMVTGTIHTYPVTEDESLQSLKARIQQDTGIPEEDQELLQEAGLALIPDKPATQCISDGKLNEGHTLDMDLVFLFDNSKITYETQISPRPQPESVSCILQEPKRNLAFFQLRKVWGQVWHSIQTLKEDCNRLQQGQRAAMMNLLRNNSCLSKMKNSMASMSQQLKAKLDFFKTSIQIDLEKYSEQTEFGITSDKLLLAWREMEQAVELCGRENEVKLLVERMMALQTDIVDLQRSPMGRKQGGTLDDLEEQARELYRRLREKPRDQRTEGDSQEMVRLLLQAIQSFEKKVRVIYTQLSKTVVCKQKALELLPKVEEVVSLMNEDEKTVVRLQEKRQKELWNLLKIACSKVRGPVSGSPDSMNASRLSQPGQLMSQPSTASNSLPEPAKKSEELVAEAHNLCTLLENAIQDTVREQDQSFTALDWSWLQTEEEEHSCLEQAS

97 human kinases = format: binding; settings: 10 µM
From the text: . […] This panel includes several adverse drug reaction receptors such as the serotonin receptor 5HT2b, M1 and M2 muscarinic receptors and adrenergic receptors. […]. page 7:
Supplementary Figure 7: Non-GPCR off-target screening for 74. a)-e) Dose-response curves of 74 at […]
proliferator-activated receptor gamma (PPARγ, Eurofins item G124). Data in a)-e) and g)-i) represent two technical replicates. Source data are provided as a Source Data file.
(1 picture or pasted object on this page, not shown here)
Description of Additional Supplementary Files
File Name: Supplementary Data 1
Description: List of all compounds described in this work.
For each compound, the compound number, the virtual library code (ZINC / Design ID), the Enamine catalog code (Enamine catalog ID), 2D information (SMILES) and a brief description whether the compound was derived from virtual screening or optimization of initial hits (Set) are provided. For virtual screening compounds, the displacement of radiolabeled 3HPGE2 at 10 µM in the initial binding assay at […]
For hit compounds, logIC50, IC50 and Ki in the EP4R PRESTO-Tango or EP4R Arrestin-BRET assays are shown. For lead compounds, the Kb in the EP4R cAMP Assay and Ki from the EP4R radioligand displacement assay are listed.
File Name: Supplementary Data 2
Description: Off-target screening of compound 74 against a panel of 97 human kinases (KINOMEscan, […]

EP2R = EP2R (Homo sapiens, UniProt P43116); assay: Radioligand (3H-PGE2) displacement assay at EP2R; format: binding
EP2R, sequence (P43116 whole entry): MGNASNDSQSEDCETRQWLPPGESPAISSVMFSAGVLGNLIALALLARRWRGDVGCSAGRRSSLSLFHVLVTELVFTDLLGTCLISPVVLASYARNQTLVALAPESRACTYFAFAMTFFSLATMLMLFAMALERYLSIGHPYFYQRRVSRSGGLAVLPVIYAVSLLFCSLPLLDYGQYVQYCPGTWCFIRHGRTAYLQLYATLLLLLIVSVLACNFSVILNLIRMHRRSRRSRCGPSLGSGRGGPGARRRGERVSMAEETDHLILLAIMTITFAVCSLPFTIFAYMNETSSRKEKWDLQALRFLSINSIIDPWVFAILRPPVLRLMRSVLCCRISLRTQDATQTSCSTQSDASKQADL

[4] = IP 10 mg/kg, 5 min, individual animals
[5] = IP 10 mg/kg, 15 min, individual animals
[6] = IP 10 mg/kg, 30 min, individual animals
[7] = IP 10 mg/kg, 60 min, individual animals
[8] = IP 10 mg/kg, 120 min, individual animals
[9] = IP 10 mg/kg, 240 min, individual animals
[10] = IP 10 mg/kg, 360 min, individual animals
[11] = IP 10 mg/kg, 480 min, individual animals

O=C(O)C1CCC2(CC1)CC(Nc1ncnc3[nH]c4c(F)cccc4c13)C2 (stereo not drawn) [Compound 74, OC(=O)C1CCC2(CC(C2)NC=3N=CN=C4NC=5C(F)=CC=CC5C34)CC1]
concentration at 360 min (in vivo; male, CD-1, mouse, plasma, ip, 10 mg/kg, IP 10 mg/kg, plasma, 360 min, individual animals, read-out: Plasma concentration, Final): 1.22 µg/mL | concentration at 360 min (in vivo; male, CD-1, mouse, plasma, ip, 10 mg/kg, IP 10 mg/kg, plasma, 360 min, mean, read-out: Plasma concentrations of cmpd 7827_0016 in mice following IP (10 mg/kg) administration, C): 1.11 µg/mL | concentration at 480 min (in vivo; male, CD-1, mouse, plasma, ip, 10 mg/kg, IP 10 mg/kg, plasma, 480 min, mean, read-out: Plasma concentrations of cmpd 7827_0016 in mice following IP (10 mg/kg) administration, C): 1.23 µg/mL | concentration at 1440 min (in vivo; male, CD-1, mouse, plasma, ip, 10 mg/kg, IP 10 mg/kg, plasma, 1440 min, mean, read-out: Plasma concentrations of cmpd 7827_0016 in mice following IP (10 mg/kg) administration, C): 0.0834 µg/mL | Cmax (in vivo; male, CD-1, mouse, plasma, ip, 10 mg/kg i.p.): 6.67 µg/mL | AUC (in vivo; male, CD-1, mouse, plasma, ip, 10 mg/kg i.p., read-out: plasma AUC (converted)): 24.2 µg·h/mL | CSF concentration, Final (in vivo; [4]): 0 ng/mL and 47.1 ng/mL | CSF concentration, Final (in vivo; [5]): 76.0 ng/mL and 109 ng/mL and 26.8 ng/mL | CSF concentration, Final (in vivo; [6]): 63.1 ng/mL and 31.1 ng/mL and 148 ng/mL | CSF concentration, Final (in vivo; [7]): 333 ng/mL and 43.7 ng/mL and 98.0 ng/mL | CSF concentration, Final (in vivo; [8]): 23.6 ng/mL and 138.9 ng/mL and 195.0 ng/mL | CSF concentration, Final (in vivo; [9]): 8.55 ng/mL and 16.8 ng/mL and 52.8 ng/mL | CSF concentration, Final (in vivo; [10]): 72.8 ng/mL and 71.4 ng/mL | CSF concentration, Final (in vivo; [11]): 16.7 ng/mL and 5.28 ng/mL and 0 ng/mL | CSF concentration, Final (in vivo; IP 10 mg/kg, 1440 min, individual animals): 32.4 ng/mL and 0 ng/mL | Brain concentration, Final (in vivo; [4]): 63.0 ng/g and 61.5 ng/g | Brain concentration, Final (in vivo; [5]): 140 ng/g and 112 ng/g | Brain concentration, Final (in vivo; [6]): 168 ng/g and 291 ng/g | Brain concentration, Final (in vivo; [7]): 124 ng/g and 174 ng/g | Brain concentration, Final (in vivo; [8]): 40.2 ng/g and 117 ng/g and 89.0 ng/g | Brain concentration, Final (in vivo; [9]): 26.0 ng/g and 26.4 ng/g | Brain concentration, Final (in vivo; [10]): 33.7 ng/g and 18.5 ng/g | Brain concentration, Final (in vivo; [11]): 9.82 ng/g and 13.1 ng/g and 57.1 ng/g | Plasma concentration, Final (in vivo; IP 10 mg/kg, plasma, 5 min, individual animals): 0.937 µg/mL and 1.166 µg/mL | Plasma concentration, Final (in vivo; IP 10 mg/kg, plasma, 15 min, individual animals): 5.726 µg/mL and 4.307 µg/mL | Plasma concentration, Final (in vivo; IP 10 mg/kg, plasma, 30 min, individual animals): 6.345 µg/mL and 8.215 µg/mL | Plasma concentration, Final (in vivo; IP 10 mg/kg, plasma, 60 min, individual animals): 5.152 µg/mL and 8.232 µg/mL | Plasma concentration, Final (in vivo; IP 10 mg/kg, plasma, 120 min, individual animals): 1.532 µg/mL and 4.227 µg/mL and 3.4 µg/mL | Plasma concentration, Final (in vivo; IP 10 mg/kg, plasma, 240 min, individual animals): 0.751 µg/mL and 1.518 µg/mL and 1.407 µg/mL | Plasma concentration, Final (in vivo; IP 10 mg/kg, plasma, 360 min, individual animals): 1.143 µg/mL and 0.957 µg/mL | Plasma concentration, Final (in vivo; IP 10 mg/kg, plasma, 480 min, individual animals): 0.516 µg/mL and 0.763 µg/mL and 2.398 µg/mL | Plasma concentration, Final (in vivo; IP 10 mg/kg, plasma, 1440 min, individual animals): 0.25 µg/mL and 0 µg/mL | off-target activity at prostaglandin D2 receptor [1]: no off-target activities | Ki (EP4R [2]): 0.366 µM | IC50 (EP4R [3]; PRESTO-Tango IC50 (nM)): 302 nM | Ki (EP4R [3]; calculated using the Cheng Prusoff equation, read-out: PRESTO-Tango Ki*): 0.0604 µM | remaining activity at 10 µM (IKK-beta): 3.2% | inhibition in kinase panel (97 human kinases): notable inhibition of five kinases | binding to EP2 receptor (EP2R): no binding
